The values that follow come from patent publication EP0052910A1, “Derivative of N-acetilcysteine having therapeutical activity, process for its preparation and related pharmaceutical compositions” (Real S.a.s. di Alberto Reiner & C., priority 1980, dated 1982).

Experiment [1] concerns male rats, of the Sprague-Dawley strain. The experiment in a line: Anti-inflammatory activity in the egg white test. The conditions noted are these: orally, 0.1 ml of egg white in the rear paw, measured 3 and 4 hours later. The experiment is classed as in vivo. The procedure: For each compound 16 male rats, of the Sprague-Dawley strain and weighing 300 g, were used. The animals were divided in four groups each comprising four rats. The first group served as a control, whereas the other three gropus were orally administered, with a 30 minute interval, with two doses of 50,75 and 100 mg/kg of the test compound. The last administration was immediately followed by the inoculation of 0.1 ml of egg white in the rear paw of all the animals, including the controls. The measurements of the diameters of the articulations were effected 3 and 4 hours later.

The test system of experiment [2] is rats of male sex, of the Sprague-Dawley strain. The experiment can be described thus: Anti-inflammatory activity in the kaolin test. Format: in vivo. Conditions: 10% suspension of kaolin injected, diameter of the tibio-tarsal articulation. Here is the method: a) Anti-inflammatory activity in the kaolin test. For each compound 16 rats of male sex, of the Sprague-Dawley strain and of 200-250 g of body weight, were used. The rats were divided into four groups each comprising four rats. All.-the animals were injected with a 10% suspension of kaolin. The first group was used as the control, whereas the other three groups were administered with doses respectively of 50,75 and 100 mg/kg. The measurements of the diamzrers of the articulation were effected one hour after the kaolin injection and then every 24 hours.
The inoculation of kaolin caused an increase of the tibio-tarsal articulation which has been partially limited by the treatment with the test compound.

“p-isobutylphenylpropionoylthio-N-acetylcysteine”: the Anti-inflammatory activity % in experiment [1] (two doses of 75 mg/kg with a 30 minute interval) is recorded as 12%; in experiment [1] (two doses of 100 mg/kg with a 30 minute interval), 20%; in experiment [2] (dose 75 mg/kg) it was 12%; in experiment [2] (dose 100 mg/kg), 26%.
